# In patent publication US8329950B2, “Process for preparation of trans 4-(3,4-Dichlorophenyl)-1,2,3,4-tetrahydro-1Napthalenamine” (Sunovion Pharmaceuticals Inc., priority 2005, dated 2012):
# Several values for one entry are separate records, joined by “and”; a condition that tells them apart may be missing. Equal entries are not always repeated.
# Assays:
# [1] = target: T1, functional uptake of norepinephrine (NE) (Rattus norvegicus, UniProt Q63380); assay: biochemical
# T1 construct: synaptosomes isolated at Cerep in a 0.32 M sucrose buffer from a male Wistar rat hypothalamus; tissue Cerep; host or cells: male Wistar rat hypothalamus synaptosomes
# T1 sequence (Q63380 1-617): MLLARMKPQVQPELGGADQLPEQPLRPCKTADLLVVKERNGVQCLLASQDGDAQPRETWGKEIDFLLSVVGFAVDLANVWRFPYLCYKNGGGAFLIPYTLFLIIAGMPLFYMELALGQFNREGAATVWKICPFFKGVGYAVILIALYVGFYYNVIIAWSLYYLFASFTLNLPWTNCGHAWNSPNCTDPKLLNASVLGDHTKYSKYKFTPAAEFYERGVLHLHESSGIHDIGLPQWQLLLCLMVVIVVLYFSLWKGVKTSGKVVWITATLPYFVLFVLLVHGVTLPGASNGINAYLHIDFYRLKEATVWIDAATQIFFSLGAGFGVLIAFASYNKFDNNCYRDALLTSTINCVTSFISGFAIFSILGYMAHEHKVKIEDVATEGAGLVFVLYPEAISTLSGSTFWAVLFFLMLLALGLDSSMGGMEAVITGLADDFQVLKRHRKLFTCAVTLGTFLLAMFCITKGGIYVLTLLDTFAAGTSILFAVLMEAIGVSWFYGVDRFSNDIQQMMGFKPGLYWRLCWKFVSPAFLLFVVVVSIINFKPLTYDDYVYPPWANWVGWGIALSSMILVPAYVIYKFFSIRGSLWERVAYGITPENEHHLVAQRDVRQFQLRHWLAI
# Description: Characterization of norepinephrine uptake is performed using synaptosomes isolated at Cerep in a 0.32 M sucrose buffer from a male Wistar rat hypothalamus. The uptake of radiolabeled norepinephrine by synaptosomes (100 μg of proteins/point) is allowed by incubating them in a deep well for 20 minutes at 37° C. in presence of test compounds and [^3H]-norepinephrine (0.1 μCi/point).
# Synaptosomes and [^3H]-norepinephrine are prepared in a Krebs buffer pH 7.4 containing 25 mM NaHCO3, 11 mM glucose and 50 μM ascorbic acid. This incubation buffer is oxygenated during 5 minutes before incubation. Basal control is incubated for 20 minutes at 4° C. in order to avoid any uptake. Following this incubation the uptake is stopped by filtration through an “unifilter 96-wells GFB “Packard plate washed with Krebs buffer containing 25 mM NaHCO3 in order to eliminate the free [^3H]-norepinephrine. The radioactivity associated to the synaptosomes retained onto the unifilter corresponding to the uptake is then measured with a microplate scintillation counter Topcount, Packard using a scintillation liquid microscint 0, Packard.
# [2] = target: T2, functional uptake of dopamine (DA) (Rattus norvegicus, UniProt P23977); assay: Dopamine functional uptake assay in rat striatum synaptosomes; format: biochemical; conditions: for inhibition of DA uptake: tested initially at 10 μM
# T2 construct: synaptosomes isolated at Cerep in a 0.32 M sucrose buffer from a male Wistar rat striatum; tissue Cerep; host or cells: male Wistar rat striatum synaptosomes
# T2 sequence (P23977 whole entry): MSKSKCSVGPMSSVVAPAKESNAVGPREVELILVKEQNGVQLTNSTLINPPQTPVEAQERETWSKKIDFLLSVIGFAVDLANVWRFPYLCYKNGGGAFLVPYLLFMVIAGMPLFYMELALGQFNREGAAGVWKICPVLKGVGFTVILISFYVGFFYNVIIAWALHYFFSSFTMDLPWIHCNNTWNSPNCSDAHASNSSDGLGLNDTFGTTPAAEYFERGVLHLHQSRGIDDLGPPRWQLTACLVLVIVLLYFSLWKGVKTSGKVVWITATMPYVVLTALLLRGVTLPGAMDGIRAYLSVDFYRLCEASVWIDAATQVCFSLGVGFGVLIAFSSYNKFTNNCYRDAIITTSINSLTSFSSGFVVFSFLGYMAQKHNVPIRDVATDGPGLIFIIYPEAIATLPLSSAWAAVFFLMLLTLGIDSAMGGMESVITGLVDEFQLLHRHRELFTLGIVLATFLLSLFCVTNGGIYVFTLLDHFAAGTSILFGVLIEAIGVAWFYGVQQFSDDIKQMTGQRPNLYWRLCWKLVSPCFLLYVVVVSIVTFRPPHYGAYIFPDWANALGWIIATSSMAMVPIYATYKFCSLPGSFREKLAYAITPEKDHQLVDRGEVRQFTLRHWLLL
# Description: Characterization of dopamine uptake is performed using synaptosomes isolated at Cerep in a 0.32 M sucrose buffer from a male Wistar rat striatum. The uptake of radiolabelled dopamine by synaptosomes (20 μg of proteins/point) is allowed by incubating them in a deep well for 15 minutes at 37° C. in presence of test compounds and [^3H]-dopamine (0.1 μCi/point).
# Synaptosomes and [^3H]-dopamine are prepared in a Krebs buffer pH 7.4 containing 25 mM NaHCO3, 11 mM glucose and 50 μM ascorbic acid. This incubation buffer is oxygenated during 5 minutes before incubation. Basal control is incubated for 15 minutes at 4° C. in order to avoid any uptake. Following this incubation the uptake is stopped by filtration through an “unifilter 96-wells GFB “Packard plate washed with Krebs buffer containing 25 mM NaHCO3 in order to eliminate the free [^3H]-dopamine. The radioactivity associated to the synaptosomes retained onto the unifilter corresponding to the uptake is then measured with a microplate scintillation counter Topcount, Packard using a scintillation liquid microscint 0, Packard.
# [3] = test system: women with insomnia secondary to perimenopause or menopause; assay: Clinical study, Physician Global Assessment; format: in vivo, human; conditions: Visit 5 (Week 4), 3 mg nightly; for Physician Global Assessment, Observed Value, Least Squares Means (SE): ANOVA
# Description: (§1) The study was aimed at observing efficacy of eszopiclone 3 mg compared to placebo in the treatment of insomnia secondary to perimenopause or menopause.
# (§2) The study was a multicenter, randomized, double-blind, placebo-controlled, parallel-group study. […] The primary method of analysis compared the post-randomization results between the two treatment groups.
# (§3) Subjects were women with insomnia secondary to perimenopause or menopause. Subjects were perimenopausal or menopausal and had insomnia symptoms including ≧45 minutes sleep latency (SL) and total sleep time (TST)≦6 hours. Perimenopausal/menopausal symptoms predated the onset of sleep disturbance symptoms. The patient population was predominately Caucasian (77.2%). The mean age was 49, with a range of 40-60.
# (§4) A total of 410 subjects were randomized. Among them, 201 received 3 mg of eszopiclone (ESZ) nightly (at bedtime) for four weeks and 209 received matching placebo (PBO).
# A Physician Global Assessment was administered at Week 4, the end of the double-blind treatment period.
# [4] = test system: women with insomnia secondary to perimenopause or menopause; assay: Clinical study, number of nocturnal awakenings due to hot flashes; format: in vivo, human; conditions: 3 mg nightly, Intent-to-Treat; for Nocturnal Awakenings due to Hot Flashes, Change from Baseline, Least Squares Means (SE): ANCOVA; for Nocturnal Awakenings due to Hot Flashes, Observed Value, Least Squares Means (SE): ANOVA
# Description: as §1, §2, §3, §4
# [5] = target: T3, functional uptake of serotonin (5-HT) (Rattus norvegicus, UniProt P31652); assay: Serotonin functional uptake assay in rat synaptosomes; format: biochemical; conditions: Table 6; tested initially at 10 μM
# T3 construct: synaptosomes isolated in a 0.32 M sucrose buffer from a male Wistar rat cortex; from tissue; host or cells: male Wistar rat cortex (whole brain) synaptosomes
# T3 sequence (P31652 whole entry): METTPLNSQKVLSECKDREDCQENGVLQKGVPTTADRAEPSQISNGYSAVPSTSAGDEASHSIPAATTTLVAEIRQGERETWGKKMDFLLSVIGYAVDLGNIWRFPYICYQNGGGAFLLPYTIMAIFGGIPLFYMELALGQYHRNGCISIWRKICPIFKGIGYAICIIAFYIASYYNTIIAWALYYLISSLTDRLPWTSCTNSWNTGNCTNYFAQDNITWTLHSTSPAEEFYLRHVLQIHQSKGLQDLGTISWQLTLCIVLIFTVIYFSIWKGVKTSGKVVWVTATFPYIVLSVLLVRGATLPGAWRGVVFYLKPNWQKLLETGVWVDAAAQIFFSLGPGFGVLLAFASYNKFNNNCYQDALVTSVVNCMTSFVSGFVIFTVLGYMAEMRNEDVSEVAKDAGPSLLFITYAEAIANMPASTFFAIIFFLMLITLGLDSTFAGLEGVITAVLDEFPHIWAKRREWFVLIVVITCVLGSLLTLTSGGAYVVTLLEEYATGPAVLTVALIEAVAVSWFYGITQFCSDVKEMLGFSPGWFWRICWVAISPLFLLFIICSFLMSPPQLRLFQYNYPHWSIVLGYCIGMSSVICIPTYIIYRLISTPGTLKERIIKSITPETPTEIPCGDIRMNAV
# Description: Characterization of serotonin uptake is performed using synaptosomes isolated in a 0.32 M sucrose buffer from a male Wistar rat cortex. The uptake of radiolabelled serotonin by synaptosomes (100 μg of proteins/point) is allowed by incubating them in a deep well for 15 minutes at 37° C. in presence of test compounds and [3H]5-hydroxytryptamin (0.1 μCi/point).
# Synaptosomes and [^3H]5-hydroxytryptamine are prepared in a Krebs buffer pH 7.4 containing 25 mM NaHCO3, 11 mM glucose and 50 μM ascorbic acid. This incubation buffer is oxygenated during 5 minutes before incubation. Basal control is incubated for 15 minutes at 4° C. in order to avoid any uptake. Following this incubation the uptake is stopped by filtration through an “unifilter 96-wells GFB “Packard plate washed with Krebs buffer containing 25 mM NaHCO3 in order to eliminate the free [^3H]5-hydroxytryptamine. The radioactivity associated to the synaptosomes retained onto the unifilter corresponding to the uptake is then measured with a microplate scintillation counter Topcount, Packard using a scintillation liquid microscint 0, Packard.
# mice = assay: Behavioral Despair Test (Porsolt swim test) in mice; format: in vivo; conditions: for Immobility Duration, Mean: N = 10
# [6] = score 1 = Very much improved to 7 = Very much worse
compound,measurement,setting,value
"N[C@@H]1CC[C@@H](c2ccc(Cl)c(Cl)c2)c2ccccc21 (relative stereo) [P + Q, trans 4-(3,4-dichlorophenyl)-1,2,3,4-tetrahydro-1-napthalenamine]",IC50,"[1]; Table 6, rat synaptosomes",8.8 nM
same,IC50,"[2]; Table 6, rat synaptosomes",7.1 nM
"CN1CCN(C(=O)O[C@H]2c3nccnc3C(=O)N2c2ccc(Cl)cn2)CC1 [Eszopiclone, (+) 6-(5-chloropyrid-2-yl)-5-(4-methylpiperazin-1-yl)carbonyloxy-7-oxo-6,7-dihydro-5H-pyrrolo[3-4-b]pyrazine]","Physician Global Assessment, Change from Baseline, 25th Percentile",[3],−2.0
same,"Physician Global Assessment, Change from Baseline, 75th Percentile",[3],0.0
same,"Physician Global Assessment, Change from Baseline, Maximum",[3],6.0
same,"Physician Global Assessment, Change from Baseline, Mean (SD)",[3],−1.0 (1.4)
same,"Physician Global Assessment, Change from Baseline, Median",[3],−1.0
same,"Physician Global Assessment, Change from Baseline, Minimum",[3],−4.0
same,"Physician Global Assessment, Change from Baseline, Least Squares Means (SE)",[3]; ANCOVA,−0.9 (0.1)
same,"Physician Global Assessment, Observed Value, Least Squares Means (SE)",[3],2.7 (0.1)
same,"Physician Global Assessment, Observed Value, Least Squares Means (SE)",[3]; listed as ESZ,2.7
same,"Physician Global Assessment, Observed Value, 25th Percentile",[3]; [6],2.0
same,"Physician Global Assessment, Observed Value, 75th Percentile",[3]; [6],4.0
same,"Physician Global Assessment, Observed Value, Maximum",[3]; [6],6.0
same,"Physician Global Assessment, Observed Value, Mean (SD)",[3]; [6],2.6 (1.2)
same,"Physician Global Assessment, Observed Value, Median",[3]; [6],2.0
same,"Physician Global Assessment, Observed Value, Minimum",[3]; [6],1.0
same,"Nocturnal Awakenings due to Hot Flashes, Change from Baseline, 25th Percentile",[4]; DB Average,−1.1
same,"Nocturnal Awakenings due to Hot Flashes, Change from Baseline, 75th Percentile",[4]; DB Average,0.0
same,"Nocturnal Awakenings due to Hot Flashes, Change from Baseline, Maximum",[4]; DB Average,1.5
same,"Nocturnal Awakenings due to Hot Flashes, Change from Baseline, Mean (SD)",[4]; DB Average,−0.7 (1.0)
same,"Nocturnal Awakenings due to Hot Flashes, Change from Baseline, Median",[4]; DB Average,−0.5
same,"Nocturnal Awakenings due to Hot Flashes, Change from Baseline, Minimum",[4]; DB Average,−6.0
same,"Nocturnal Awakenings due to Hot Flashes, Observed Value, 25th Percentile",[4]; DB Average,0.0
same,"Nocturnal Awakenings due to Hot Flashes, Observed Value, 75th Percentile",[4]; DB Average,0.9
same,"Nocturnal Awakenings due to Hot Flashes, Observed Value, Maximum",[4]; DB Average,2.7
same,"Nocturnal Awakenings due to Hot Flashes, Observed Value, Mean (SD)",[4]; DB Average,0.5 (0.6)
same,"Nocturnal Awakenings due to Hot Flashes, Observed Value, Median",[4]; DB Average,0.2
same,"Nocturnal Awakenings due to Hot Flashes, Observed Value, Minimum",[4]; DB Average,0.0
same,"Nocturnal Awakenings due to Hot Flashes, Change from Baseline, Least Squares Means (SE)",[4]; DB Average,−0.7 (0.1)
same,"Nocturnal Awakenings due to Hot Flashes, Observed Value, Least Squares Means (SE)",[4]; DB Average,0.5 (0.1)
same,"Nocturnal Awakenings due to Hot Flashes, Change from Baseline, 25th Percentile",[4]; Week 1,−1.2
same,"Nocturnal Awakenings due to Hot Flashes, Change from Baseline, 75th Percentile",[4]; Week 1,0.0
same,"Nocturnal Awakenings due to Hot Flashes, Change from Baseline, Maximum",[4]; Week 1,0.8
same,"Nocturnal Awakenings due to Hot Flashes, Change from Baseline, Mean (SD)",[4]; Week 1,−0.7 (1.0)
same,"Nocturnal Awakenings due to Hot Flashes, Change from Baseline, Median",[4]; Week 1,−0.5
same,"Nocturnal Awakenings due to Hot Flashes, Change from Baseline, Minimum",[4]; Week 1,−6.0
same,"Nocturnal Awakenings due to Hot Flashes, Observed Value, 25th Percentile",[4]; Week 1,0.0
same,"Nocturnal Awakenings due to Hot Flashes, Observed Value, 75th Percentile",[4]; Week 1,1.0
same,"Nocturnal Awakenings due to Hot Flashes, Observed Value, Maximum",[4]; Week 1,3.0
same,"Nocturnal Awakenings due to Hot Flashes, Observed Value, Mean (SD)",[4]; Week 1,0.5 (0.7)
same,"Nocturnal Awakenings due to Hot Flashes, Observed Value, Median",[4]; Week 1,0.2
same,"Nocturnal Awakenings due to Hot Flashes, Observed Value, Minimum",[4]; Week 1,0.0
same,"Nocturnal Awakenings due to Hot Flashes, Change from Baseline, Least Squares Means (SE)",[4]; Week 1,−0.7 (0.1)
same,"Nocturnal Awakenings due to Hot Flashes, Observed Value, Least Squares Means (SE)",[4]; Week 1,0.5 (0.1)
same,"Nocturnal Awakenings due to Hot Flashes, Observed Value, Least Squares Means (SE)","[4]; Week 1, listed as ESZ",0.3
same,"Nocturnal Awakenings due to Hot Flashes, Change from Baseline, 25th Percentile",[4]; Week 2,−1.0
same,"Nocturnal Awakenings due to Hot Flashes, Change from Baseline, 75th Percentile",[4]; Week 2,0.0
same,"Nocturnal Awakenings due to Hot Flashes, Change from Baseline, Maximum",[4]; Week 2,2.0
same,"Nocturnal Awakenings due to Hot Flashes, Change from Baseline, Mean (SD)",[4]; Week 2,−0.7 (1.0)
same,"Nocturnal Awakenings due to Hot Flashes, Change from Baseline, Median",[4]; Week 2,−0.6
same,"Nocturnal Awakenings due to Hot Flashes, Change from Baseline, Minimum",[4]; Week 2,−6.0
same,"Nocturnal Awakenings due to Hot Flashes, Observed Value, 25th Percentile",[4]; Week 2,0.0
same,"Nocturnal Awakenings due to Hot Flashes, Observed Value, 75th Percentile",[4]; Week 2,1.0
same,"Nocturnal Awakenings due to Hot Flashes, Observed Value, Maximum",[4]; Week 2,3.0
same,"Nocturnal Awakenings due to Hot Flashes, Observed Value, Mean (SD)",[4]; Week 2,0.5 (0.7)
same,"Nocturnal Awakenings due to Hot Flashes, Observed Value, Median",[4]; Week 2,0.0
same,"Nocturnal Awakenings due to Hot Flashes, Observed Value, Minimum",[4]; Week 2,0.0
same,"Nocturnal Awakenings due to Hot Flashes, Change from Baseline, Least Squares Means (SE)",[4]; Week 2,−0.6 (0.1)
same,"Nocturnal Awakenings due to Hot Flashes, Observed Value, Least Squares Means (SE)",[4]; Week 2,0.5 (0.1)
same,"Nocturnal Awakenings due to Hot Flashes, Change from Baseline, 25th Percentile",[4]; Week 3,−1.0
same,"Nocturnal Awakenings due to Hot Flashes, Change from Baseline, 75th Percentile",[4]; Week 3,0.0
same,"Nocturnal Awakenings due to Hot Flashes, Change from Baseline, Maximum",[4]; Week 3,1.5
same,"Nocturnal Awakenings due to Hot Flashes, Change from Baseline, Mean (SD)",[4]; Week 3,−0.7 (1.1)
same,"Nocturnal Awakenings due to Hot Flashes, Change from Baseline, Median",[4]; Week 3,−0.4
same,"Nocturnal Awakenings due to Hot Flashes, Change from Baseline, Minimum",[4]; Week 3,−6.0
same,"Nocturnal Awakenings due to Hot Flashes, Observed Value, 25th Percentile",[4]; Week 3,0.0
same,"Nocturnal Awakenings due to Hot Flashes, Observed Value, 75th Percentile",[4]; Week 3,1.0
same,"Nocturnal Awakenings due to Hot Flashes, Observed Value, Maximum",[4]; Week 3,3.0
same,"Nocturnal Awakenings due to Hot Flashes, Observed Value, Mean (SD)",[4]; Week 3,0.5 (0.7)
same,"Nocturnal Awakenings due to Hot Flashes, Observed Value, Median",[4]; Week 3,0.0
same,"Nocturnal Awakenings due to Hot Flashes, Observed Value, Minimum",[4]; Week 3,0.0
same,"Nocturnal Awakenings due to Hot Flashes, Change from Baseline, Least Squares Means (SE)",[4]; Week 3,−0.6 (0.1)
same,"Nocturnal Awakenings due to Hot Flashes, Observed Value, Least Squares Means (SE)",[4]; Week 3,0.5 (0.1)
same,"Nocturnal Awakenings due to Hot Flashes, Change from Baseline, 25th Percentile",[4]; Week 4,−1.3
same,"Nocturnal Awakenings due to Hot Flashes, Change from Baseline, 75th Percentile",[4]; Week 4,0.0
same,"Nocturnal Awakenings due to Hot Flashes, Change from Baseline, Maximum",[4]; Week 4,2.1
same,"Nocturnal Awakenings due to Hot Flashes, Change from Baseline, Mean (SD)",[4]; Week 4,−0.8 (1.2)
same,"Nocturnal Awakenings due to Hot Flashes, Change from Baseline, Median",[4]; Week 4,−0.7
same,"Nocturnal Awakenings due to Hot Flashes, Change from Baseline, Minimum",[4]; Week 4,−6.0
same,"Nocturnal Awakenings due to Hot Flashes, Observed Value, 25th Percentile",[4]; Week 4,0.0
same,"Nocturnal Awakenings due to Hot Flashes, Observed Value, 75th Percentile",[4]; Week 4,1.0
same,"Nocturnal Awakenings due to Hot Flashes, Observed Value, Maximum",[4]; Week 4,3.6
same,"Nocturnal Awakenings due to Hot Flashes, Observed Value, Mean (SD)",[4]; Week 4,0.4 (0.7)
same,"Nocturnal Awakenings due to Hot Flashes, Observed Value, Median",[4]; Week 4,0.0
same,"Nocturnal Awakenings due to Hot Flashes, Observed Value, Minimum",[4]; Week 4,0.0
same,"Nocturnal Awakenings due to Hot Flashes, Change from Baseline, Least Squares Means (SE)",[4]; Week 4,−0.7 (0.1)
same,"Nocturnal Awakenings due to Hot Flashes, Observed Value, Least Squares Means (SE)",[4]; Week 4,0.4 (0.1)
Fc1ccc(C(OCCN2CCN(CCCc3ccccc3)CC2)c2ccc(F)cc2)cc1 [GBR 12909],inhibition of 5-HT uptake,[5],— (— <50% inhibition)
same,inhibition of NE uptake,"[1]; Table 6, tested initially at 10 μM",— (— <50% inhibition)
"N[C@@H]1CC[C@@H](c2ccc(Cl)c(Cl)c2)c2ccccc21 [P, (1R,4S)-trans 4-(3,4-dichlorophenyl)-1,2,3,4-tetrahydro-1-napthalenamine]","Immobility Duration, individual mice",mice; 0.03 mg/kg intraperitoneal,129 s and 99 s and 107 s and 159 s and 102 s and 115 s and 122 s and 128 s and 120 s and 96 s
same,"Immobility Duration, Mean",mice; 0.03 mg/kg intraperitoneal,118 s
same,"Immobility Duration, individual mice",mice; 0.1 mg/kg intraperitoneal,100 s and 103 s and 76 s and 109 s and 56 s and 98 s and 62 s and 119 s and 96 s and 85 s
same,"Immobility Duration, Mean",mice; 0.1 mg/kg intraperitoneal,90 s
same,"Immobility Duration, individual mice",mice; 0.3 mg/kg intraperitoneal,93 s and 23 s and 102 s and 110 s and 106 s and 98 s and 120 s and 114 s and 109 s and 115 s
same,"Immobility Duration, Mean",mice; 0.3 mg/kg intraperitoneal,99 s
same,"Immobility Duration, individual mice",mice; 1 mg/kg intraperitoneal,34 sec and 51 sec (2×) and 35 sec and 19 sec and 81 sec and 50 sec and 29 sec and 66 sec and 87 sec
same,"Immobility Duration, Mean",mice; 1 mg/kg intraperitoneal,50 s
same,"Immobility Duration, individual mice",mice; 3 mg/kg intraperitoneal,3 sec and 17 sec and 5 sec and 0 sec (3×) and 40 sec and 26 sec and 12 sec and 49 sec
same,"Immobility Duration, Mean",mice; 3 mg/kg intraperitoneal,15 s
CN(C)CCCN1c2ccccc2CCc2ccccc21 [imipramine],inhibition at 10 µM,[1]; read-out: inhibition of NE uptake,< 50%
same,"Immobility Duration, individual mice",mice; 10 mg/kg,89 s and 85 s and 73 s and 37 s and 74 s and 95 s and 5 s and 33 s
same,"Immobility Duration, Mean",mice; 10 mg/kg,58 s
same,inhibition of DA uptake,[2]; Table 6,— (— <50% inhibition)
same,inhibition at 10 µM,[2]; read-out: inhibition of DA uptake,< 50%
CNCCCC1c2ccccc2C=Cc2ccccc21 [protriptyline],inhibition of DA uptake,[2]; Table 6,— (— <50% inhibition)
